Peptide text beside a SMILES is read from it.

Settings in one data set: not given
`CC(=O)NO`: the logP (usually a log measure of how a compound divides between an organic and an aqueous phase) is -1.59.
`Cc1ccc([N+](=O)[O-])cc1N` had a logP of 1.87.
With `CON(C)C(=O)Nc1cccc(O)c1`, the logP was 0.83.
`O=c1nn[nH]c2ccccc12` gave a log partition coefficient (logP) of 0.83.
In the case of `O=Cc1cccs1`, the logP was determined as 1.02.
As to `CS(=O)(=O)c1ccc(N)cc1`, the logP is -0.12.
As for `Cc1ccc2ncccc2c1`, the logP came out at 2.57.
As to `CN(C)C(N(C)C)=S(I)c1ccc(S(=O)(=O)N(C)C)cc1` (stereo unspecified), the logP is -0.81.
For `c1ccc(-c2csnn2)cc1`, the logP was 2.42.
As to `CSc1ccc(O)cc1`, the lipophilicity (logP) amounted to 1.78.
Consider `CCC1=C(N2CC2)C(=O)C(C)=C(N2CC2)C1=O`, for which the logP came out at 1.35.
On the same count and under the same terms, to `CCc1cc(OC)c(CC(C)N)cc1OC` (stereo unspecified) belongs 2.81; to `NC(=O)c1ccc(O)cc1`, 0.33; to `NC(Cc1ccccc1)C(=O)OCn1ncc2c(=O)[nH]cnc21` (stereo unspecified), 0.4.
Take `O=[N+]([O-])c1cccc2ncccc12`: the lipophilicity (logP) is 1.86.
The same measure, in the same setting: to `Clc1nc(Cl)c(Cl)[nH]1` belongs 1.85.
Regarding `C[C@]12CC[C@H]3[C@@H](CCC4=CC(=O)CC[C@@]43C)[C@@H]1CC[C@@H]2C(=O)CO`, the log partition coefficient (logP) stood at 2.88.
The same measure, in the same setting: the same measure for `NS(=O)(=O)c1ccc(S(N)(=O)=O)cc1`: -0.96.
Regarding `COc1ccc(C=O)cc1C`, the logP was 2.23.
Take `O=C(O)c1cccc(O)c1O`: the logP came to 1.2.
On the same count and under the same terms, the same measure for `CCOC(C)OCC`: 0.84.
In turn, `CS(C)(=O)=O` showed a log partition coefficient (logP) of -1.41.
Compound `COC(=O)Nc1cccc(Cl)c1` returned a logP of 2.58.
Compound `CCC(C)c1cccc(C(C)C)c1O` (stereo unspecified) displayed a lipophilicity (logP) of 3.85.
`CCNc1nc(NC(C)(C)C)nc(SC(F)F)n1` came in with a log partition coefficient (logP) of 4.57.
For the compound `CCN(CC)CCNC(=O)c1cc(C#N)c(N)cc1OC`, the logP turned out to be 1.94.
`CCCOC(=O)c1ccccc1`: the log partition coefficient (logP) is 3.01.
On the same count and under the same terms, the same measure for `Cc1ccc(/N=C/N(C)/C=N/c2ccc(C)cc2C)c(C)c1`: 5.5; for `COc1ccc(CN(CCN(C)C)c2ccccn2)cc1`: 3.27; for `ICI`: 2.3.
On the same count and under the same terms, the same measure for `C=O`: 0.35.
`Nc1ccc(Cl)c(Cl)c1` returned a logP of 2.69.
The compound `CC(=O)Nc1nccs1` showed a logP of 0.76.
Compound `CC(=O)N[C@H](C(=O)N[C@H](C(N)=O)C(C)C)C(C)C` (Ac-Val-Val-NH2) showed a log partition coefficient (logP) of -0.32.
Consider `CC(C)N(CCC(C(N)=O)c1ccc(-c2ccccc2)cc1)C(C)C` (stereo unspecified), for which the logP was determined as 3.66.
Regarding `CCOP(=S)(OCC)SCSP(=S)(OCC)OCC`, the logP stood at 5.07.
For `CN1CCN(C)CC1`, the log partition coefficient (logP) is -0.4.
`CC(=O)CC(=O)C(C)(C)C` displayed a logP of 1.67.
As for `Cc1nn(C)c(OCC(=O)c2ccccc2)c1C(=O)c1ccc(Cl)cc1Cl`, the logP turned out to be 3.69.
As to `CNC(C)=O`, the log partition coefficient (logP) is -1.05.
`Oc1nc2ccccc2[nH]1`: the logP is 1.12.
`CCNCc1cccnc1` had a lipophilicity (logP) of 0.76.
Same read-out and setting: to `Nc1ccc(C(=O)Oc2cccc(Br)c2)c(O)c1` belongs 3.84; to `NCCCCc1ccncc1`, 0.86.
`C[Si](C)(C)c1ccc(O)cc1` showed a log partition coefficient (logP) of 3.84.
With `CCCOC(=O)c1cc(O)c(O)c(O)c1`, the logP is 1.8.
`CNc1nc(-c2ccccc2)c2ccccc2n1`: the logP turned out to be 3.58.
For the compound `C(=C\c1ccccc1)/c1ccccc1`, the logP was 4.81.
Consider `CN1C(=O)CN=C(c2ccccc2F)c2cc(Cl)ccc21`, for which the logP turned out to be 2.75.
On to `Clc1cc(Cl)c(-c2cccc(Cl)c2Cl)cc1Cl`, for which the logP worked out at 6.67.
`Cc1cccc(NC(N)=O)c1`: the logP came to 1.29.
As to `CCOP(=S)(OCC)Oc1ccc(S(C)=O)cc1` (stereo unspecified), the lipophilicity (logP) was 2.23.
`O=C1OCc2ccccc21` gave a logP of 0.8.
In the case of `CCOC(=O)c1ccc(NC(=O)N(C)OC)cc1`, the log partition coefficient (logP) was 2.24.
`COC(=O)c1ccco1` had a logP of 1.
The same measure, in the same setting: the same measure for `O=C(O)c1cc2ccccc2o1`: 2.41; for `CCCCCCc1ccncc1`: 4.35.
Turning to `CC(=O)OCC(=O)[C@@]1(O)[C@H](OC(C)=O)C[C@H]2[C@@H]3CCC4=CC(=O)C=C[C@]4(C)[C@@]3(F)[C@@H](O)C[C@@]21C`, the logP is 1.92.
As to `CCN(C)C`, the logP is 0.7.
Take `Oc1cc(O)cc(O)c1`: the logP came out at 0.16.
On the same count and under the same terms, to `CCN(CC)CC` belongs 1.45.
The compound `N#Cc1ccc2[nH]ccc2c1` displayed a logP of 2.38.
`CNC1=C(N2CC2)C(=O)C(NC)=C(N2CC2)C1=O` yielded a log partition coefficient (logP) of 0.13.
Compound `CCCCn1cnc2c(NC(C)=O)ncnc21` showed a logP of 0.55.
Turning to `CC1=NCCN1`, the logP turned out to be 0.52.
In turn, `CC1CC(C)CN(N=O)C1` (stereo unspecified) came in with a log partition coefficient (logP) of 1.53.
For `COc1ccc(OC)c(CC(C)N)c1` (stereo unspecified), the lipophilicity (logP) came out at 1.72.
With `CC(C)(C)C1Nc2cc(Cl)c(S(N)(=O)=O)cc2S(=O)(=O)N1` (stereo unspecified), the logP amounted to 0.36.
Still for that read-out and setting: the same measure for `CNC(=O)Oc1cc(C)ccc1C`: 2.03; for `O=C(OC1CCCCC1)n1cc(F)c(=O)[nH]c1=O`: 1.42.
For the compound `O=C(O)CCc1ccc(O)cc1`, the logP came to 1.16.
Turning to `N#Cc1sc2c(=O)c3ccccc3c(=O)c=2sc1C#N`, the logP worked out at 2.84.
Regarding `O=[As](O)(O)c1ccccc1`, the logP came out at 0.06.
In the case of `COc1ccc(C(C)c2ccc(OC)cc2)cc1`, the logP was 4.52.
In the case of `CCn1cnc2c(NC(C)=O)ncnc21`, the logP is -0.41.
On to `O=C(Nc1ccccc1)NS(=O)(=O)c1ccc(Cl)cc1`, for which the lipophilicity (logP) stood at 3.61.
Regarding `CC(C)(CCC(=O)O)C(=O)O`, the logP is 0.67.
Compound `CC(C)C(=O)NC(N)=O` registered a lipophilicity (logP) of 0.04.
Regarding `CCN(CC)Cc1cccnc1`, the logP was 1.01.
Regarding `Cc1nn(-c2ccccc2)c(C)c1N=O`, the log partition coefficient (logP) turned out to be 2.28.
For the compound `COC(=O)C(Cc1ccccc1)NC(C)=O` (stereo unspecified), the lipophilicity (logP) came to 0.92.
In the case of `c1cnn(C23CC4CC(CC(C4)C2)C3)c1`, the logP is 3.05.
In turn, `COP(=O)(C=C(Cl)Cl)OC` registered a logP of 1.4.
The compound `C#CCO` gave a logP of -0.38.
In turn, `O=C(O)CNc1ccccc1` had a logP of 0.62.
The same measure, in the same setting: to `CN(C)CCN1C(=O)c2ccccc2N(C)c2ccccc21` belongs 2.5; to `CNC(=O)Oc1cccc(N(C)C)c1`, 1.43.
For the compound `C1CC1`, the logP worked out at 1.72.
For the compound `c1ccc(-c2cccc(-c3ccccc3)n2)cc1`, the lipophilicity (logP) came to 4.82.
On the same count and under the same terms, to `CCc1ccc(N)cc1` belongs 1.96; to `COC1=CC(=O)c2ccccc2C1=O`, 1.35.
`CC(=O)c1cccc(S(I)=C(N(C)C)N(C)C)c1` (stereo unspecified) came in with a logP of -0.88.
Consider `Cc1nnc(SCC2=C(C(=O)O)N3C(=O)[C@@H](NC(=O)Cn4cnnn4)[C@H]3SC2)s1`, for which the logP was -0.58.
Compound `Nc1ccccc1I` yielded a log partition coefficient (logP) of 2.32.
Still for that read-out and setting: the same measure for `NC(=O)C1CCCN1C(=O)C(Cc1cn(C(=O)OCc2ccccc2)cn1)NC(=O)C1CCC(=O)N1` (stereo unspecified): -0.11.
`CCc1ccccc1CC` registered a logP of 3.72.
On to `CN(C)C(N(C)C)=S(I)c1c(Cl)cccc1Cl` (stereo unspecified), for which the logP amounted to 0.
`CC1(C)NC(=O)NC1=O`: the logP was -0.48.
Same read-out and setting: to `Clc1cccnc1Cl` belongs 2.11.
As to `CC(=O)c1ccc(S(N)(=O)=O)cc1`, the lipophilicity (logP) worked out at 0.2.
Still for that read-out and setting: to `CCOC(=O)CNC(=O)C=[N+]=[N-]` belongs -0.08; to `c1ccc2c(N3CCCCC3)ncnc2c1`, 2.92; to `CC1(c2ccncc2)CCC(=O)NC1=O` (stereo unspecified), 0.07.
The compound `COC(OC)OC` showed a lipophilicity (logP) of 0.25.
On the same count and under the same terms, to `O=C(O)COc1cccc([N+](=O)[O-])c1` belongs 1.37; to `O=NN1CCN(N=O)CC1`, -0.85; to `O=C(NP(=O)(N1CC1)N1CC1)c1ccc(Cl)cc1`, 0.97.
Still for that read-out and setting: to `CON=C(C(=O)NC1C(=O)N2C(C(=O)OC(C)OC(C)=O)=C(COC(N)=O)CSC12)c1ccco1` (stereo unspecified) belongs 0.89; to `O=C(Nc1ccccc1)NC1CC(O)C(CO)OC1O` (stereo unspecified), -0.61; to `Cc1[nH]cnc1CSCCNC(=N)NCCSCc1nc[nH]c1C`, 1.34.
In turn, `CCCCCCCOC(N)=O` had a lipophilicity (logP) of 2.36.
On to `CCNc1nc(Cl)nc(NC(C)(C)C#N)n1`, for which the logP was determined as 2.22.
The compound `CCOC(=O)c1ccccn1` yielded a logP of 0.87.
Consider `CCC12CC3CC(CC(N)(C3)C1)C2`, for which the logP was 3.4.
The same measure, in the same setting: the same measure for `CN(C)C(N(C)C)=S(I)c1c(Cl)cc(Cl)cc1Cl` (stereo unspecified): 0.05; for `FC(F)(F)c1nc2c(Cl)c(Cl)ccc2[nH]1`: 3.49; for `O=[N+]([O-])c1cc2ccccc2[n+]([O-])c1`: 0.56.
In turn, `Cc1ccc2c(c1)c([N+](=O)[O-])cc[n+]2[O-]` came in with a logP of 1.43.
As for `O=C(O)Cc1ccc(Cl)cc1`, the logP is 2.12.
`C/C=C/C=C/C(=O)O`: the logP was determined as 1.33.
Take `C1CN2CCC1CC2`: the log partition coefficient (logP) was 1.38.
With `CCCCCn1cnc2c(NC(C)=O)ncnc21`, the lipophilicity (logP) was found to be 0.98.
As to `Cc1ccc2cccnc2c1`, the lipophilicity (logP) is 2.47.
Turning to `C=C1C(=O)OC2CC(C)C3CC(=O)C(CC12)C1(C3)C(=O)OC2CC(C)C3C=CC(=O)C3C(C)(O)C21` (stereo unspecified), the logP is 1.66.
As to `FN(F)C(c1ccccc1)(c1ccccc1)c1ccccc1`, the logP was found to be 3.73.
The same measure, in the same setting: to `CCCCC1C(=O)NC(=O)NC1=O` belongs 0.77; to `CC[n+]1cccc2ccccc21.[Br-]`, -2.76; to `O=C(/C=C/c1ccccc1)c1ccccc1`, 3.08.
In turn, `c1ccc(-c2ncc[nH]2)cc1` came in with a logP of 1.88.
In the case of `CC(=O)Oc1ccc(C(N)=O)cc1`, the logP is 0.27.
`N#CNC(=N)N` gave a logP of -1.15.
`CCCOCc1ccccc1NC(=O)OCCN1CCCCC1`: the lipophilicity (logP) was 3.34.
With `C=C[C@@]12COC(=O)C(=C)[C@@H]1[C@H]1OC(=O)C(=C)[C@@H]1[C@@H](O)C2`, the logP turned out to be 0.31.
As for `[O-][n+]1cccc(O)c1`, the log partition coefficient (logP) is -0.61.
Turning to `COc1ccc(CCNCC(O)COc2cccc(C)c2)cc1OC` (stereo unspecified), the logP turned out to be 3.

Still in this data set, the particulars now being: pH 7.2.
Regarding `COC(=O)C(c1ccccc1)C1CCCCN1` (stereo unspecified), the pH-dependent lipophilicity (logD) (usually lipophilicity at a set pH, counting ionised and neutral species) came out at 0.2.
